Values after ≈ are worked out from the molar mass of the structure shown.
Tests used:
Format in all cases: functional
[1] = test system: Escherichia coli; assay: Antimicrobial activity against lacZ-negative, Nalidixic acid-, rifampicin-resistant Escherichia coli EC600 by Etest
[2] = test system: Klebsiella pneumoniae; assay: Antimicrobial activity against Klebsiella pneumoniae isolate 048 expressing beta-lactamase KPC-2, DHA-1, qnrB4 and armA by Etest
[3] = test system: Escherichia coli; assay: Antimicrobial activity against Escherichia coli isolate CKP048 transconjugant harboring beta-lactamase KPC-2, DHA-1, qnrB4 and armA by Etest
[4] = test system: Escherichia coli; assay: Antimicrobial activity against lacZ-negative, Nalidixic acid-, rifampicin-resistant Escherichia coli EC600 by Etest in presence of beta-lactamase inhibitor Tazobactam
[5] = test system: Klebsiella pneumoniae; assay: Antimicrobial activity against Klebsiella pneumoniae isolate 048 expressing beta-lactamase KPC-2, DHA-1, qnrB4 and armA by Etest in presence of beta-lactamase inhibitor Tazobactam
[6] = test system: Escherichia coli; assay: Antimicrobial activity against Escherichia coli isolate CKP048 transconjugant harboring beta-lactamase KPC-2, DHA-1, qnrB4 and armA by Etest in presence of beta-lactamase inhibitor Tazobactam

Molecule	MIC [1] [µg/mL]	MIC [2] [µg/mL]	MIC [3] [µg/mL]	MIC [4] [µg/mL]	MIC [5] [µg/mL]	MIC [6] [µg/mL]
C[C@@H](O)[C@H]1C(=O)N2C(C(=O)O)=C(S[C@@H]3CN[C@H](C(=O)Nc4cccc(C(=O)O)c4)C3)[C@H](C)[C@H]12	0.016 (≈ 0.0336 µM)	32 (≈ 67.3 µM)	8 (≈ 16.8 µM)			
NCC[C@H](O)C(=O)N[C@@H]1C[C@H](N)[C@@H](O[C@H]2O[C@H](CN)[C@@H](O)[C@H](O)[C@H]2O)[C@H](O)[C@H]1O[C@H]1O[C@H](CO)[C@@H](O)[C@H](N)[C@H]1O [AMIKACIN]	1 (≈ 1.71 µM)	> 256	> 256			
CO[C@@]1(NC(=O)Cc2cccs2)C(=O)N2C(C(=O)O)=C(COC(N)=O)CS[C@@H]21 [CEFOXITIN]	2 (≈ 4.68 µM)	256 (≈ 599 µM)	128 (≈ 299 µM)			
CC(C)(O/N=C(\C(=O)N[C@@H]1C(=O)N2C(C(=O)[O-])=C(C[n+]3ccccc3)CS[C@H]12)c1csc(N)n1)C(=O)O [CEFTAZIDIME]	0.064 (≈ 0.117 µM)	96 (≈ 176 µM)	32 (≈ 58.5 µM)			
C[C@@H](O)[C@H]1C(=O)N2C(C(=O)O)=C(SCCNC=N)C[C@H]12 [IMIPENEM ANHYDROUS]	0.25 (≈ 0.835 µM)	> 32	3 (≈ 10 µM)			
C[C@@H](O)[C@H]1C(=O)N2C(C(=O)O)=C(S[C@@H]3CN[C@H](C(=O)N(C)C)C3)[C@H](C)[C@H]12 [MEROPENEM]	0.094 (≈ 0.245 µM)	> 32	2 (≈ 5.22 µM)			
CCN1CCN(C(=O)N[C@@H](C(=O)N[C@@H]2C(=O)N3[C@@H]2SC(C)(C)[C@@H]3C(=O)O)c2ccccc2)C(=O)C1=O [PIPERACILLIN]				2	> 256	> 256
CN(C)c1cc(NC(=O)CNC(C)(C)C)c(O)c2c1C[C@H]1C[C@H]3[C@H](N(C)C)C(O)=C(C(N)=O)C(=O)[C@@]3(O)C(O)=C1C2=O [TIGECYCLINE]	0.125 (≈ 0.213 µM)	0.38 (≈ 0.649 µM)	0.125 (≈ 0.213 µM)			
COLISTIN	0.25	0.38	0.38			
